Results as given in ChEMBL document CHEMBL5696442, “Discovery of type II inhibitors of TGFβ-activated kinase 1 (TAK1) and mitogen-activated protein kinase kinase kinase kinase 2 (MAP4K2)” (J Med Chem, 2015).
Calls of active or inactive are those of the source. The calls are words filed in the database; no cut-off is given here.

Assays:
[1] = molecular target: Cyclin-dependent kinase 2 (Homo sapiens) (UniProt P24941); experiment: Inhibition of CDK2 (unknown origin) at 10 uM by Ambit Kinomescan binding assay relative to control
[2] = molecular target: TGF-beta receptor type-2 (Homo sapiens) (UniProt P37173); experiment: Inhibition of TGFBR2 (unknown origin) at 10 uM by Ambit Kinomescan binding assay
TGF-beta receptor type-2 (Homo sapiens), sequence (P37173 whole entry): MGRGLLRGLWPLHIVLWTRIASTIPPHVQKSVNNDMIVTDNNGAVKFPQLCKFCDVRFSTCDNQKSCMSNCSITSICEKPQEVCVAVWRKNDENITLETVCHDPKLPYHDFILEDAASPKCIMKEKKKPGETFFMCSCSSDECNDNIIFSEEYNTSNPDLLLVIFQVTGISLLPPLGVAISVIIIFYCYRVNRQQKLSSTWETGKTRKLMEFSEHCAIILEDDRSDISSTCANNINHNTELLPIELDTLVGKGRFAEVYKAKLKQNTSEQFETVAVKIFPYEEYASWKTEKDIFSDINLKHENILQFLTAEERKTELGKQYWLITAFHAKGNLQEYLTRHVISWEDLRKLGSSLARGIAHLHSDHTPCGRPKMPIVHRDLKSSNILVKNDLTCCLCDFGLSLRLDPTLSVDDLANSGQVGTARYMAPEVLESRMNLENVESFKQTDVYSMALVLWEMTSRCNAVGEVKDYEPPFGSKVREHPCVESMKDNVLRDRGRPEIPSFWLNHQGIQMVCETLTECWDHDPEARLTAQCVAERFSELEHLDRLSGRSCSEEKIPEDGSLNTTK

[3] = molecular target: T1, Mitogen-activated protein kinase 13 (Homo sapiens) (UniProt O15264); experiment: Inhibition of p38delta (unknown origin) at 10 uM by Ambit Kinomescan binding assay relative to control; values are per cent of control
T1 sequence (whole entry): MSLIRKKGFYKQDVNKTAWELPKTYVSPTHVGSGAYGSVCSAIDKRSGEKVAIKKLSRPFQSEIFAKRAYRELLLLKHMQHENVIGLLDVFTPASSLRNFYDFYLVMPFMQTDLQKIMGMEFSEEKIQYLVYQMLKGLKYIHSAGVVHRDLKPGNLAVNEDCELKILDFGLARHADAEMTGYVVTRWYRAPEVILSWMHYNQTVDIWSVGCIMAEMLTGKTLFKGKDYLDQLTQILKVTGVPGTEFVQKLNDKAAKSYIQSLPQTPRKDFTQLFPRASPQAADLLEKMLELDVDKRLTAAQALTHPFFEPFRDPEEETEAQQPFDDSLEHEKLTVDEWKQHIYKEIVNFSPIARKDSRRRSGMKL

[4] = molecular target: Serine/threonine-protein kinase 16 (Homo sapiens) (UniProt O75716); experiment: Inhibition of MPSK1 Lys2 labeling site in human A-375 cells at 0.5 uM by KiNativ Profiling analysis relative to control; type: cell-based
Serine/threonine-protein kinase 16 (Homo sapiens), sequence (O75716 whole entry): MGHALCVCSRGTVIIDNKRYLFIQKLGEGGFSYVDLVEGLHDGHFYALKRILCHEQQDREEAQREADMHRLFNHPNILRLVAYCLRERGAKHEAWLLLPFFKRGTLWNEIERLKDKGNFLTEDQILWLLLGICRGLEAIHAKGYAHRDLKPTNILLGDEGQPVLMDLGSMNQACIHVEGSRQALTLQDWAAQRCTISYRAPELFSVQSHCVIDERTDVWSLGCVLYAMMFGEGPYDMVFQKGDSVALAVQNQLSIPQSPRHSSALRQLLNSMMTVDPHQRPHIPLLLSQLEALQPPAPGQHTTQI

[5] = molecular target: T2, Serine/threonine-protein kinase TAO2 (Homo sapiens) (UniProt Q9UL54); experiment: Inhibition of TAO2 Lys2 labeling site in human A-375 cells at 0.05 uM by KiNativ Profiling analysis relative to control; type: cell-based
T2 sequence (whole entry): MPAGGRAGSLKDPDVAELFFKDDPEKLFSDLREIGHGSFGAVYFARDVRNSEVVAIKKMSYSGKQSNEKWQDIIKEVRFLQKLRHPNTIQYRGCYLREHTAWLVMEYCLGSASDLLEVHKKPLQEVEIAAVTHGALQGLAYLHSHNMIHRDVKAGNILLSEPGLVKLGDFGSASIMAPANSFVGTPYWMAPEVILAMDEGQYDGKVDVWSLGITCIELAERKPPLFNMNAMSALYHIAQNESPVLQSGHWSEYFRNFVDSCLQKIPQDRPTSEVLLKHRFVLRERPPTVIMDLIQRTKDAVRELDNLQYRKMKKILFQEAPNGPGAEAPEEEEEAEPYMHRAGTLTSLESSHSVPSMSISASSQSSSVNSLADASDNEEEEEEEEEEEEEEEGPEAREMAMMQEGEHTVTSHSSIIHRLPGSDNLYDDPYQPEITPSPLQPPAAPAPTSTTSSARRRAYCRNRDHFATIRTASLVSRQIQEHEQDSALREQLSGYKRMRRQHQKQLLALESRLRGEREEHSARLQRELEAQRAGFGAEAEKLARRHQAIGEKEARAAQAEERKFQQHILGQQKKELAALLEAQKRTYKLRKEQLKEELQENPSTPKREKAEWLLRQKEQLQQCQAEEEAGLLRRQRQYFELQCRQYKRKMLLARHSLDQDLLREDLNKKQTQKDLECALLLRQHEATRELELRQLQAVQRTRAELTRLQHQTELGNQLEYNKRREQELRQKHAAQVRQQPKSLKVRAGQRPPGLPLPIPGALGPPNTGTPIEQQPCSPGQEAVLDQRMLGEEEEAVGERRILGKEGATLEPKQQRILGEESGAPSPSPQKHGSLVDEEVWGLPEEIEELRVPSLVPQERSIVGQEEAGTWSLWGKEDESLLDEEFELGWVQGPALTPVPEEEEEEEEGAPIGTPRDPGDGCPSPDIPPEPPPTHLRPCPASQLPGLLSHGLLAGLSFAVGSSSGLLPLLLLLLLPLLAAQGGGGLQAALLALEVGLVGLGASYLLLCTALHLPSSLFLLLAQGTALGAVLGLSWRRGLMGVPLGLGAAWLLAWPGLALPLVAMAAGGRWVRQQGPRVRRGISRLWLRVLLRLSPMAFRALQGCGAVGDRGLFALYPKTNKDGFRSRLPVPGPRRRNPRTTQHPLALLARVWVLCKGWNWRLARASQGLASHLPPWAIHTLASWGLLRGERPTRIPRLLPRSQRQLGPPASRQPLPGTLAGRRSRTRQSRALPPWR

[6] = molecular target: Mitogen-activated protein kinase 11 (Homo sapiens) (UniProt Q15759); experiment: Inhibition of p38 beta (unknown origin) at 1 uM by Ambit Kinomescan binding assay relative to control; values are per cent of control
Mitogen-activated protein kinase 11 (Homo sapiens), sequence (Q15759 whole entry): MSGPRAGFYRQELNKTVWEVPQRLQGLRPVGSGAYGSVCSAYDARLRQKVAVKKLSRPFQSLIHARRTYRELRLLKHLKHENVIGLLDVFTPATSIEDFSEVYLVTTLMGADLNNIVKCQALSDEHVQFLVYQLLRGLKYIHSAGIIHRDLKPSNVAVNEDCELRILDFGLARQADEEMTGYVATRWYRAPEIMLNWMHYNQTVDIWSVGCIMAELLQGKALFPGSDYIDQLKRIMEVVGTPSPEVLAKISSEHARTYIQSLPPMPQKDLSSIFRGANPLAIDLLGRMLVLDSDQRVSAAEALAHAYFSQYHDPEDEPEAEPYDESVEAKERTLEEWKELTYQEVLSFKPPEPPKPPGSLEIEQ

[7] = molecular target: T3, Dual specificity mitogen-activated protein kinase kinase 6 (Homo sapiens) (UniProt P52564); experiment: Inhibition of MAP2K6 ACT labeling site in human Huh-7 cell lysate at 1 uM by KiNativ Profiling analysis relative to control; type: subcellular
T3 sequence (whole entry): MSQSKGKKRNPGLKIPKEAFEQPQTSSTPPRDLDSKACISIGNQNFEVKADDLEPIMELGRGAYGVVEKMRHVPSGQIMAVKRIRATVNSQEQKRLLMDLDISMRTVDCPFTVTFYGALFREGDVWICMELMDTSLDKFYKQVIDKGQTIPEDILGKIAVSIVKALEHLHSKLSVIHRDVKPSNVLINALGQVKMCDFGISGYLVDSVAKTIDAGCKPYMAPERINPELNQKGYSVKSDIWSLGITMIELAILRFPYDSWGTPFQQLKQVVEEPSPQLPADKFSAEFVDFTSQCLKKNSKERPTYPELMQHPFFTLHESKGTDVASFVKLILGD

[8] = molecular target: T4, Serine/threonine-protein kinase 3 (Homo sapiens) (UniProt Q13188); experiment: Inhibition of MST2 Lys2 labeling site harbouring IHRDIKAGNILLNTEGHAK in human Huh-7 cells at 1 uM by KiNativ Profiling analysis relative to control; type: cell-based
T4 sequence (whole entry): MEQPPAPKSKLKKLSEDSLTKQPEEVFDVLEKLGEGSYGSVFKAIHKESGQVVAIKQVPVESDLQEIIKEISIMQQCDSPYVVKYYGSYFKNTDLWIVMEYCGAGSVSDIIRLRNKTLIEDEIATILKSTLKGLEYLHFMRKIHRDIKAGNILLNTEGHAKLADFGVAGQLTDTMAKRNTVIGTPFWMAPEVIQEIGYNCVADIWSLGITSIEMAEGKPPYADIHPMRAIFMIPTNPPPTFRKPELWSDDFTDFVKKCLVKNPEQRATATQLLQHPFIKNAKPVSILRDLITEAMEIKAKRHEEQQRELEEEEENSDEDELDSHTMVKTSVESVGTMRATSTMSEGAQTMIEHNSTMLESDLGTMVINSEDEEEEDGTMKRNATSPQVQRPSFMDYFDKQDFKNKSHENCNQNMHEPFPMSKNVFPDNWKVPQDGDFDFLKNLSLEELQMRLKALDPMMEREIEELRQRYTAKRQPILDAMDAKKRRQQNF

CCN1CCN(Cc2ccc(NC(=O)c3ccc(C)c(Oc4ccnc5[nH]ccc45)c3)cc2C(F)(F)F)CC1 was tested, and the inhibition [1] was 11%, the inhibition [2] was “inactive” and the percent of control [3] was 0.55%.
Compound CCN1CCN(Cc2ccc(NC(=O)c3ccc(C)c(/C=C/c4cnc5[nH]ccc5c4OC)c3)cc2C(F)(F)F)CC1 has an inhibition [4] of 15%, an inhibition [5] of 21.5% and a percent of control [6] of 0.3%.
With CNc1cc(Oc2cc(C(=O)Nc3cc(N4CCN(C)CC4)cc(C(F)(F)F)c3)ccc2C)ncn1 the inhibition [7] was -1.2% and the inhibition [8] was -0.8%.
